{"source": "patent US20040152903A1", "about": "“6-chloro-3-pyridylmethylpropylamine derivatives, preparation process thereof and bactericides” (priority 2004, published 2004)", "key": {"[1]": {"system": "Leptosphaeria nodorum", "test": "Antifungal activity test (PDA plate, hypha extension inhibition)", "assay_type": "cell-based", "conditions": "0.8 ppm in PDA culture medium", "method": "(§1) (Antifungal Activity Test against Various Pathogenic Fungi) For each of the compounds I-1 to 27 of the present invention and the comparative compounds (a) to (d), (m-1) and (m-3), 20 mg was weighed and dissolved in 2 ml of dimethylsulfoxide, and a double dilution row in 10 steps was prepared by further using dimethylsulfoxide. A 0.6 ml portion of these solutions was each added to 60 ml of a PDA culture medium (potato-dextrose-agar culture medium) at about 60° C., they were well mixed in a 100 ml Erlenmeyer flask, the solution was poured into a schale and was solidified, the plate culture media containing the compounds according to the present invention with final concentrations of 100, 50.0, 25.0, 12.5, 6.3, 3.2, 1.6, 0.8, 0.4 and 0.2 mg/l were prepared. On the other hand, the specimen bacteria cultured on the plate culture media beforehand was punched by a 4 mm diameter cork borer, and was inoculated on the plate culture media containing the aforementioned chemicals. After the inoculation, the bacteria were cultured at the optimum growth temperature of each bacterium for 1 to 7 days (for this optimum growth temperature, LIST OF CULTURES 1996 Microorganisms 10th edition published by Fermentation Research Institute (Foundation) can be referred to.), and the growth of the bacteria was measured by the diameter of a colony. […] R=100(dc−dt)/dc (Equation 3) [wherein each symbol is shown as follows: R=Hypha extension inhibition rate (%), dc=Diameter of colony on no-treated plate, dt=Diameter of colony on chemical-treated plate.] The results obtained above was evaluated in 5 steps in accordance with the following examination scale. <Growth Inhibition> 5: Hypha extension inhibition rate of 90% or more 4: Hypha extension inhibition rate of from 70% to less than 90% 3: […] 2: […] In addition, the abbreviations in Table 10 are as follows: L.n: Leptosphaeria nodorum"}, "[2]": {"system": "wheat powdery mildew", "test": "Permeable mobility fungicidal effect test in leaf section of wheat powdery mildew", "assay_type": "in vivo", "conditions": "length of non-contracted area relative to compound (m-2); 200 mg/l, 0.5 μl applied to wheat leaf (Abukumawase)", "method": "(Permeable Mobility Fungicidal Effect Test in Leaf Section of Wheat Powdery Mildew) In the test example 4, permeable mobility fungicidal effect test was performed on the leaf section of wheat powdery mildew with regard to the compounds I-1 to 27 according to the present invention and the comparative compounds (a) to (d), and (m-1) to (m-3) with the method described later. <Test Method> The compound in the form of a wettable powder obtained by Formulation 2 or the like was diluted and suspended with water to a predetermined concentration (200 mg/l), and 0.5 μl of the suspension was applied to a 2 to 3 cm leaf portion from the root of the three leaves of the 4th to 4.5th leaf period wheat (variety: Abukumawase) cultured by using a square plastic pot (size: 6.4 cm×6.4 cm). After these wheat leaves were subject to still standing in a glass house (temperature: 20 to 24° C., relative humidity: 20 to 70 RH) for one day, the spores of wheat powdery mildew were inoculated over the leaves by sprinkling the same with a brush from an infected leaf, a disease was contracted in the same glass house. The length of a non-contracted area generated from the applied portion to the direction of the leaf top was measured, and a relative mobility to the compound (m-2) was calculated with the following calculation […] by using the comparative compound (m-2) as a standard compound. Relative mobility=(Length of non-contracted area in each chemical section (cm)/Length of non-contracted area of compound (m-2) (cm)) (Equation 4)"}, "[3]": {"system": "Botrytis cinerea", "test": "Antifungal activity test (PDA plate, hypha extension inhibition)", "assay_type": "cell-based", "conditions": "1.6 ppm in PDA culture medium", "method": "as §1, with “B.c: Botrytis cinerea” for “L.n: Leptosphaeria nodorum”"}, "[4]": {"system": "cucumber powdery mildew", "test": "Test of control effect on cucumber powdery mildew", "assay_type": "in vivo", "conditions": "wettable powder 100 mg/l, 100 liters/10 a, cucumber (Sagamihanpakufushinari), examined 9th to 14th day after inoculation", "method": "(Test of Control Effect on Cucumber Powdery Mildew) The wettable powders formulated by using each of the compounds I-1 to 27 according to the present invention and the comparative compounds (a) to (d), (m-1) and (m-3) were each diluted and suspended with water to a predetermined concentration (100 mg/l), the suspension was sprinkled over the first to the second leaf period cucumbers (variety: “[…]”) cultivated by using a square plastic pot (size: 6.4 cm×6.4 cm) in a rate of 100 liters/10 a (ares). After the sprinkled leaves were air-dried, the spores were inoculated over the leaves by sprinkling the same with a brush from an infected leaf, a disease was contracted in a glass house (temperature: 20 to 24° C., relative humidity: 20 to 70 RH). On the 9th to 14th day after the inoculation, the infection degree was examined according to the following scale and the control value of each compound was calculated by the following calculation equation 2: (Examination Scale) [table]"}, "[5]": {"system": "wheat powdery mildew", "test": "Test of control effect on wheat powdery mildew", "assay_type": "in vivo", "design": "Control Value: scale not given here", "conditions": "wettable powder 125 mg/l, 100 liters/10 a, wheat seedlings (Nourin 64), examined 9th to 14th day after inoculation", "method": "(Test of Control Effect on Wheat Powdery Mildew) Wettable powders were prepared from compounds of the present invention I-1 to I-27 and comparative compounds (a) to (d), (m-1) and (m-3). The obtained wettable powder was diluted and suspended with water to provide the predetermined concentration (125 mg/l), and was sprinkled onto seedlings of wheat (variety: “Nourin 64”) at the first to the second leaf period which were cultivated using square plastic pots (size: 6.4 cm×6.4 cm) in a rate of 100 liters/10 a (ares). After drying the sprinkled leaves with air, a suspension of wheat powdery mildew spores taken from infected leaves was inoculated by spraying onto the sprinkled leaves. They were supervised in a green house (temperature: 20 to 24° C., relative humidity: 20 to 70 RH). On the 9th to 14th day after the inoculation, the infection degree was examined according to the following scale and the control value of each compound was calculated by the following calculation equation 1. [table]"}, "[6]": {"system": "Septoria tritici", "test": "Antifungal activity test (PDA plate, hypha extension inhibition)", "assay_type": "cell-based", "conditions": "100 ppm in PDA culture medium", "method": "as §1, with “S.t: Septoria tritici” for “L.n: Leptosphaeria nodorum”"}}, "data": [{"smiles": "CC(Cc1ccc(F)c(OC(F)(F)F)c1)CN(C)Cc1ccc(Cl)nc1", "note": "(stereo not shown) [Compound I-16]", "values": [{"measurement": "Growth Inhibition L.n (0.8)", "setting": "[1]", "value": "5 (Hypha extension inhibition rate of 90% or more)"}, {"measurement": "Relative Mobility", "setting": "[2]", "value": 9}, {"measurement": "Growth Inhibition B.c (1.6)", "setting": "[3]", "value": "4 (Hypha extension inhibition rate of from 70% to less than 90%)"}, {"measurement": "Control Value", "setting": "[4]", "value": 100}, {"measurement": "Control Value", "setting": "[5]", "value": 100}]}, {"smiles": "CC(Cc1ccc(C(F)(F)F)cc1F)CN(C)Cc1ccc(Cl)nc1", "note": "(stereo not shown) [Compound I-8]", "values": [{"measurement": "Relative Mobility", "setting": "[2]", "value": 5}, {"measurement": "Growth Inhibition S.t (100)", "setting": "[6]", "value": "4 (Hypha extension inhibition rate of from 70% to less than 90%)"}, {"measurement": "Growth Inhibition B.c (1.6)", "setting": "[3]", "value": "4 (Hypha extension inhibition rate of from 70% to less than 90%)"}, {"measurement": "Control Value", "setting": "[4]", "value": 100}, {"measurement": "Control Value", "setting": "[5]", "value": 100}]}]}
